Converted amounts (≈) assume the structure as drawn. “And” between values parts separate entries of the source, which are not always exact repeats. Equal values may be shown once. Read-outs that look alike come from different tables or passages of the source.
Columns and labels:
S.aureus 57 (MSSA) = assay: Broth dilution MIC/MBC, clinical MSSA isolate; format: cell-based; settings: Staphylococcus aureus, MSSA
Description: (§1) […]. Both MRSA and MSSA strains were derived from various human infections.
(§2) […]. Five methicillin-resistant S. aureus strains were isolated from nose (n = 1), bronchoalveolar lavage (n = 1), sputum (n = 1), wound (n = 1), and blood (n = 1); five methicillin-susceptible S. aureus strains were isolated from throat (n = 1), bronchoalveolar lavage (n = 1), sputum (n = 1), abscess (n = 1), and blood (n = 1).
(§3) The identity of S. aureus isolates was confirmed with conventional methods and with Pastorex Staph-Plus latex agglutination kit (Bio-Rad, Marnes-la-Coquette, France) and verified applying the polymerase chain reaction (PCR) of S. aureus-specific region of the thermonuclease gene, nuc. Resistance to methicillin was first verified using cefoxitin disk (30 µg), and then, identified based on the presence of mecA gene. S. aureus ATCC®25923 (methicillin-susceptible) and S. aureus ATCC®43300 (MDR) were applied as the reference strains. Both the reference and clinical strains were stored at −80 °C, in Tryptic Soy Broth (TSB, Becton-Dickinson, Franklin Lakes, NJ, USA) supplemented with 15% glycerol.
(§4) A broth dilution method was used to determine minimal inhibitory concentration (MIC) for tested compounds as recommended by Clinical Laboratory Standards Institute (CLSI) guidelines. Investigated compounds were diluted in Mueller Hinton Broth 2 (Sigma-Aldrich Co., St. Louis, MO, USA) in polypropylene 96-well plates and initial inoculum 5 × 10^5 cfu/mL were incubated at 37 °C for 18 h. MIC was taken as the lowest drug concentration at which an observable growth was inhibited. […] The loopful (10 µL) of the tested sample was transferred to Tryptic Soy Agar (TSA, Becton-Dickinson, Franklin Lakes, NJ, USA) and incubated at 37 °C for 48 h. […] Drug Solutions were made fresh on the day of the assay. All experiments were performed in triplicate.

S.aureus 56 (MSSA) = assay: Broth dilution MIC/MBC, clinical MSSA isolate; format: cell-based; settings: Staphylococcus aureus, MSSA
Description: as §1, §2, §3, §4

S.aureus 58 (MSSA) = assay: Broth dilution MIC/MBC, clinical MSSA isolate; format: cell-based; settings: Staphylococcus aureus, MSSA
Description: as §1, §2, §3, §4

S.aureus 55 (MSSA) = assay: Broth dilution MIC/MBC, clinical MSSA isolate; format: cell-based; settings: Staphylococcus aureus, MSSA
Description: as §1, §2, §3, §4

S.aureus 59 (MSSA) = assay: Broth dilution MIC/MBC, clinical MSSA isolate; format: cell-based; settings: Staphylococcus aureus, MSSA
Description: as §1, §2, §3, §4

[1] = test system: Candida albicans ATCC 10231; assay: Broth dilution MIC/MFC, reference fungal strain; format: cell-based; settings: Candida albicans, ATCC10231
Procedure: (§5) The tests were carried out using a serial dilution method, allowing the determination of MIC (minimal concentration inhibiting bacterial growth), MBC (minimal bactericidal concentration), and MFC (minimal fungicidal concentration) values.
(§6) Antimicrobial activity was tested using the following reference strains: Staphylococcus aureus ATCC 6538 (MSSA), Staphylococcus aureus ATCC 43300 (MRSA), Staphylococcus epidermidis PCM 2118, Escherichia coli ATCC 11229, Pseudomonas aeruginosa ATCC 15442, Proteus vulgaris NCTC 4635, Enterococcus faecalis ATCC 11420, and Candida albicans ATCC 10231.
as §4

[2] = test system: Gram-positive reference strains; assay: Broth dilution MIC/MBC, summary over Gram-positive reference strains; format: cell-based
Procedure: […]. The tests were carried out using a serial dilution method, allowing the determination of MIC (minimal concentration inhibiting bacterial growth), MBC (minimal bactericidal concentration), and MFC (minimal fungicidal concentration) values.
as §6, §4

MSSA 58 biofilm = assay: Biofilm inhibition assay (crystal violet); format: cell-based, Staphylococcus aureus
Procedure: (§7) For many decades, S. aureus has been identified as the most common etiologic agent of device related infections, associated with biofilm formation. These infections are hard to cure because the specific structure of biofilm confers resistance to the host immune response and to the action of antibiotics.
(§8) Then, 100 µL bacterial suspension prepared from fresh overnight culture by diluting with TSB to obtain the initial inoculum 2 × 10^6 CFU/mL was added. The plates were incubated for 24 h at 37 °C. After the incubation, the wells were discarded and were gently rinsed three times with PBS to remove planktonic staphylococcal cells. Then, contents of the wells were discarded and the biofilm was fixed with 200 µL methanol for 20 min and dried at room temperature for 30 min. The biofilm was stained by adding 200 µL 1.8% crystal violet solution for 15 min. After staining, the plates were rinsed with water and 200 µL bleaching solution (30% ethanol, 30% glacial acetic acid, 40% water) added for 15 min to dissolve the remaining crystal violet. A microplater reader was used to measure the absorbance of the adherent biofilm at 570 nm (OD570). […] The negative control included only the growth medium.

MRSA 51 biofilm = assay: Biofilm inhibition assay (crystal violet); format: cell-based, Staphylococcus aureus
Procedure: as §7, §8

MSSA 59 biofilm = assay: Biofilm inhibition assay (crystal violet); format: cell-based, Staphylococcus aureus; settings: MSSA 59, 4 × MIC
Procedure: as §7, §8

MRSA 52 biofilm = assay: Biofilm inhibition assay (crystal violet); format: cell-based, Staphylococcus aureus; settings: MRSA 52, 4 × MIC
Procedure: as §7, §8

[3] = test system: HaCaT cell line (human keratinocyte); assay: MTT cell viability assay; format: cell-based; settings: 72 h, read-out: IC50 HaCaT
S.aureus 51 (MRSA) = assay: Broth dilution MIC/MBC, clinical MRSA isolate; format: cell-based; settings: Staphylococcus aureus, MRSA
Description: as §1, §2, §3, §4

S.aureus 50 (MRSA) = assay: Broth dilution MIC/MBC, clinical MRSA isolate; format: cell-based; settings: Staphylococcus aureus, MRSA
Description: as §1, §2, §3, §4

S.aureus 53 (MRSA) = assay: Broth dilution MIC/MBC, clinical MRSA isolate; format: cell-based; settings: Staphylococcus aureus, MRSA
Description: as §1, §2, §3, §4

S.aureus 54 (MRSA) = assay: Broth dilution MIC/MBC, clinical MRSA isolate; format: cell-based; settings: Staphylococcus aureus, MRSA
Description: as §1, §2, §3, §4

S.aureus 52 (MRSA) = assay: Broth dilution MIC/MBC, clinical MRSA isolate; format: cell-based; settings: Staphylococcus aureus, MRSA
Description: as §1, §2, §3, §4

[4] = test system: clinical isolates of methicillin-resistant S. aureus (50–54) and methicillin-sensitive S. aureus (55–59); assay: Broth dilution MIC/MBC, summary over clinical S. aureus isolates; format: cell-based, Staphylococcus aureus
Description: as §1, §2, §3, §4

[5] = test system: Enterococcus faecalis ATCC 11420; assay: Broth dilution MIC/MBC, reference strain; format: cell-based; settings: Enterococcus faecalis, ATCC11420
Procedure: as §5, §6, §4

[6] = test system: Proteus vulgaris NCTC 4635; assay: Broth dilution MIC/MBC, reference strain; format: cell-based; settings: Proteus vulgaris, NCTC4635
Procedure: as §5, §6, §4

[7] = test system: Staphylococcus aureus ATCC 43300 (MRSA); assay: Broth dilution MIC/MBC, reference strain; format: cell-based; settings: Staphylococcus aureus
Procedure: as §5, §6, §4

[8] = test system: Staphylococcus aureus ATCC 6538 (MSSA); assay: Broth dilution MIC/MBC, reference strain; format: cell-based; settings: Staphylococcus aureus
Procedure: as §5, §6, §4

[9] = test system: Staphylococcus epidermidis PCM 2118; assay: Broth dilution MIC/MBC, reference strain; format: cell-based
Procedure: as §5, §6, §4

[10] = test system: Pseudomonas aeruginosa ATCC 15442; assay: Broth dilution MIC/MBC, reference strain; format: cell-based; settings: Pseudomonas aeruginosa, ATCC15442
Procedure: as §5, §6, §4

[11] = test system: Escherichia coli ATCC 11229; assay: Broth dilution MIC/MBC, reference strain; format: cell-based; settings: Escherichia coli, ATCC11229
Procedure: as §5, §6, §4

`Cc1cc(S(=O)(=O)NC(=O)C=Cc2ccccc2)c(SCc2cccc3ccccc23)cc1Cl` [Compound 16, N-[4-Chloro-5-methyl-2-(naphthalen-1-ylmethylthio)benzenesulfonyl]cinnamamide] showed an MBC (S.aureus 57 (MSSA)) greater than 128 µg/mL, an MIC (S.aureus 57 (MSSA)) of 4 µg/mL (≈ 7.87 µM) and an MBC (S.aureus 56 (MSSA)) greater than 128 µg/mL. It also gave an MIC (S.aureus 56 (MSSA)) of 4 µg/mL (≈ 7.87 µM), an MBC (S.aureus 58 (MSSA)) greater than 128 µg/mL and an MIC (S.aureus 58 (MSSA)) of 8 µg/mL (≈ 15.7 µM). It also gave an MBC (S.aureus 55 (MSSA)) greater than 128 µg/mL, an MIC (S.aureus 55 (MSSA)) of 4 µg/mL (≈ 7.87 µM) and an MBC (S.aureus 59 (MSSA)) greater than 128 µg/mL. It also gave an MIC (S.aureus 59 (MSSA)) of 4 µg/mL (≈ 7.87 µM), an MFC [1] of 128 µg/mL (≈ 252 µM) and an MIC [1] of 64 µg/mL (≈ 126 µM). For the same compound, the MIC [2] was 4 to 8 µg/mL (≈ 7.87 to 15.7 µM), the “inhibition of biofilm formation” value (MSSA 58 biofilm; MSSA 58, 2 × MIC) was 86% and the “inhibition of biofilm formation” value (MSSA 58 biofilm; MSSA 58, concentration equal to the MIC) was 44%. For the same compound, the “inhibition of biofilm formation” value (MRSA 51 biofilm; MRSA 51, 4 × MIC) was 87–90%, the “inhibition of biofilm formation” value (MRSA 51 biofilm; MRSA 51, concentration equal to the MIC) was 35% and the “inhibition of biofilm formation” value (MSSA 59 biofilm) was 87–90%. For the same compound, the “inhibition of biofilm formation” value (MRSA 52 biofilm) was 87–90%, the IC50 [3] was 19 µg/mL and 38 µM and the MBC (S.aureus 51 (MRSA)) was greater than 128 µg/mL. For the same compound, the MIC (S.aureus 51 (MRSA)) was 4 µg/mL (≈ 7.87 µM), the MBC (S.aureus 50 (MRSA)) was greater than 128 µg/mL and the MIC (S.aureus 50 (MRSA)) was 4 µg/mL (≈ 7.87 µM). For the same compound, the MBC (S.aureus 53 (MRSA)) was greater than 128 µg/mL, the MIC (S.aureus 53 (MRSA)) was 8 µg/mL (≈ 15.7 µM) and the MBC (S.aureus 54 (MRSA)) was greater than 128 µg/mL. The MIC (S.aureus 54 (MRSA)) was 8 µg/mL (≈ 15.7 µM), the MBC (S.aureus 52 (MRSA)) was greater than 128 µg/mL and the MIC (S.aureus 52 (MRSA)) was 4 µg/mL (≈ 7.87 µM). For the same compound, the MBC ([4]; Staphylococcus aureus) was greater than 128 µg/mL, the MIC ([4]; Staphylococcus aureus) was 4 to 8 µg/mL (≈ 7.87 to 15.7 µM) and the MIC ([4]; summary over ten clinical MRSA and MSSA isolates (Table 4)) was 4 to 8 µg/mL. The MBC [5] was greater than 128 µg/mL, the MIC [5] was 8 µg/mL (≈ 15.7 µM) and the MBC [6] was greater than 128 µg/mL. For the same compound, the MIC [6] was 128 µg/mL (≈ 252 µM), the MBC [7] was greater than 128 µg/mL and the MIC [7] was 4 µg/mL (≈ 7.87 µM). For the same compound, the MBC [8] was greater than 128 µg/mL, the MIC [8] was 4 µg/mL (≈ 7.87 µM) and the MBC ([9]; S. epidermidis PCM 2118) was 4 µg/mL (≈ 7.87 µM). The MIC ([9]; Staphylococcus epidermidis, PCM2118) was 4 µg/mL (≈ 7.87 µM), the MBC ([9]; Staphylococcus epidermidis, PCM2118, S. epidermidis PCM 2118, read-out: MBC) was 4 to 16 µg/mL (≈ 7.87 to 31.5 µM) and the MBC [10] was greater than 128 µg/mL. It also gave an MIC [10] of 128 µg/mL (≈ 252 µM), an MBC [11] greater than 128 µg/mL and an MIC [11] of 128 µg/mL (≈ 252 µM).

Source: PMC6981581, “N-(2-Arylmethylthio-4-Chloro-5-Methylbenzenesulfonyl)amide Derivatives as Potential Antimicrobial Agents—Synthesis and Biological Studies” (International Journal of Molecular Sciences, 2019)
